Test results published in ChEMBL document CHEMBL2311396, “Xanthone derivatives as potential inhibitors of miRNA processing by human Dicer: targeting secondary structures of pre-miRNA by small molecules” (Bioorg Med Chem Lett, 2013).
Calls of active or inactive are those of the source. The rule behind the calls is not given here.

How the values were obtained:
[1] = biological target: Endoribonuclease Dicer (Homo sapiens) (UniProt Q9UPY3); assay: Inhibition of human recombinant Dicer-mediated long dsRNA digestion assessed as 21- to 23-mer short RNA formation at 200 uM after 3 hrs by denaturing-PAGE analysis
Endoribonuclease Dicer (Homo sapiens), sequence (Q9UPY3 whole entry): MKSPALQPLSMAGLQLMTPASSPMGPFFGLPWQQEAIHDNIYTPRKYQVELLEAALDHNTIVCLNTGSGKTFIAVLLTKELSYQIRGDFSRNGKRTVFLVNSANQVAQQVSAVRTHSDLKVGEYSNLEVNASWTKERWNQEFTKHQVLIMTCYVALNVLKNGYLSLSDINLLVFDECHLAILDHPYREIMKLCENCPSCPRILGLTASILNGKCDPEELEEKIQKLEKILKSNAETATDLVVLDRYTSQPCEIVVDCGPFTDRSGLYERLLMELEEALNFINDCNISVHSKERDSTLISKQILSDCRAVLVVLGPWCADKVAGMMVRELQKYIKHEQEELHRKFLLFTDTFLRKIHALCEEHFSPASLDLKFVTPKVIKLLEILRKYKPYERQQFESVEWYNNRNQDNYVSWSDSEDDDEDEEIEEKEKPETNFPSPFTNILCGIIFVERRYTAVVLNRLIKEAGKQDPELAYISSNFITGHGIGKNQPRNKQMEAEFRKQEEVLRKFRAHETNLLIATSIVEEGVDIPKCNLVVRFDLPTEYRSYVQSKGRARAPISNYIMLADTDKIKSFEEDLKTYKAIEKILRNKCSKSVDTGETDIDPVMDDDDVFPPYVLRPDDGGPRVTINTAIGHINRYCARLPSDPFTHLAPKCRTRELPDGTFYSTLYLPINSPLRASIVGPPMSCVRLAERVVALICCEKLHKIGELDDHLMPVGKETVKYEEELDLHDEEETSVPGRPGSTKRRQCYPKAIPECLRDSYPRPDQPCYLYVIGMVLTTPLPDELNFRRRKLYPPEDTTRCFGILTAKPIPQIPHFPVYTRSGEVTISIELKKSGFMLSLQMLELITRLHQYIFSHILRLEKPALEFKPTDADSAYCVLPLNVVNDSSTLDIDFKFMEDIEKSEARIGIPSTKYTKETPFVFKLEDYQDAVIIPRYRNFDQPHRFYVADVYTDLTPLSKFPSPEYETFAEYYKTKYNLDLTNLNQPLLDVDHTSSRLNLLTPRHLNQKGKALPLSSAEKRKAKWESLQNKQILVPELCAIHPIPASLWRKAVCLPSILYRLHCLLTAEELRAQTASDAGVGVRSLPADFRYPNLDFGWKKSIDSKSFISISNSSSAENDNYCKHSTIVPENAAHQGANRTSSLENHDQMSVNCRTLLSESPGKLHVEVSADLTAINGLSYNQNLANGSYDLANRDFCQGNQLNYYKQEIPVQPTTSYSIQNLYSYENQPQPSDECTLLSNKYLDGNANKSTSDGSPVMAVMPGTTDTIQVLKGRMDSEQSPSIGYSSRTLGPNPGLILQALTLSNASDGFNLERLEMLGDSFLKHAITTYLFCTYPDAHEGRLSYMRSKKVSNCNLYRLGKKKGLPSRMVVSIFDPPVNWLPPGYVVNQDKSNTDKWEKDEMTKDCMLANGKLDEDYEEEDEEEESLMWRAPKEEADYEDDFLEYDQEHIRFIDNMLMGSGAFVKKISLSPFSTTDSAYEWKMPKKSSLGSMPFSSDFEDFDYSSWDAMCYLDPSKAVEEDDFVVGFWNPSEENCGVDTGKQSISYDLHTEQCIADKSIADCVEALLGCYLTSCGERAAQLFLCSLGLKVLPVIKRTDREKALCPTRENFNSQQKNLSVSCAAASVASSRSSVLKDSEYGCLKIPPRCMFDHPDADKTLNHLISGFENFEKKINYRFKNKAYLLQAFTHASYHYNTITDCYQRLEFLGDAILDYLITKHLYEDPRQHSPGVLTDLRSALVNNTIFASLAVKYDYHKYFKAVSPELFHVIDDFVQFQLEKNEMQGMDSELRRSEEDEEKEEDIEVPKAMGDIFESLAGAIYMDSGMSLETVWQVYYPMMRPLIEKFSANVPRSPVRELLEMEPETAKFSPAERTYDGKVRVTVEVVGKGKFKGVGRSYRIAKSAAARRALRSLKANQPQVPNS

[2] = biological target: Endoribonuclease Dicer (Homo sapiens) (UniProt Q9UPY3); assay: Inhibition of human recombinant Dicer-mediated pre-miR-29a processing assessed as reduction of mature miR-29a formation at 200 uM after 3 hrs by Northern blot analysis
[3] = biological target: Endoribonuclease Dicer (Homo sapiens) (UniProt Q9UPY3); assay: Inhibition of human recombinant Dicer-mediated pre-miR-29a processing assessed as reduction of mature miR-29a formation by Northern blot analysis (reference value: 41%); settings: concentration not given here
[4] = biological target: Endoribonuclease Dicer (Homo sapiens) (UniProt Q9UPY3); assay: Inhibition of human recombinant Dicer-mediated pre-miR-29a without internal loop processing assessed as reduction of mature miR-29a formation by Northern blot analysis (reference value: 30%); settings: concentration not given here
[5] = biological target: Endoribonuclease Dicer (Homo sapiens) (UniProt Q9UPY3); assay: Inhibition of human recombinant Dicer-mediated pre-miR-29a without bulge loop processing assessed as reduction of mature miR-29a formation by Northern blot analysis (reference value: 51%); settings: concentration not given here

Row | inhibition [1] | inhibition [2] | inhibition [3] [%] | inhibition [4] [%] | inhibition [5] [%] | Structure (SMILES)
1 | inactive | inactive | – | – | – | CN(C)CCOc1ccc2oc3ccc(OCCN(C)C)cc3c(=O)c2c1
2 | inactive | inactive | – | – | – | NCCCCCCOc1ccc2oc3ccc(OCCCCCCN)cc3c(=O)c2c1
3 | inactive | inactive | – | – | – | CN(C)CCOc1ccc2sc3ccc(OCCN(C)C)cc3c(=O)c2c1
4 | inactive | inactive | – | – | – | CC(CN)Oc1ccc2oc3ccc(OC(C)CN)cc3c(=O)c2c1 (stereo not given)
5 | inactive | Active | – | – | – | NCCOc1ccc2oc3ccc(OCCN)cc3c(=O)c2c1
6 | inactive | Active | 23 | 22 | 46 | NCCOc1ccc2sc3ccc(OCCN)cc3c(=O)c2c1
